# Entries after “also recorded” stand apart in the source; their conditions may differ.
# What was measured:
# [1] = biological target: deoxyhemoglobin (Homo sapiens, UniProt P68871+P69905); test: X-ray crystallographic studies with deoxyhemoglobin; format: binding
# Description: X-ray Crystallographic Studies. Hemoglobin for the crystal studies was prepared from human blood, and T-state deoxy crystals were obtained from ammonium sulfate solutions. RSR-4 or RSR-13 (2 effectors/I Hb) was dissolved in a slight excess of sodium bicarbonate to facilitate dissolution and was added to a 6 g % solution of deoxy-Hb in the glove box. A 1 g % Hb RSR-4 or RSR-13 solution was added to each crystallization tube. Crystals grew in approximately 1 week. X-ray data were collected with Friedel pairs using ω scans on a Rigaku AFC5R diffractometer equipped with a rotating anode and a 60-cm long evacuated beam tunnel. The crystals with allosteric effectors were isomorphous with native deoxy-Hb: RSR-4, 63.2, 83.7, and 53.8 Å, 99.4°; RSR-13, 63.2, 83.6, and 53.7 Å, 99.5°. Data collection (RSR-4 to 2.4-Å and RSR-13 to 2.8-Å resolution) was controlled by TEXAN software from Molecular Structure Corp. (The Woodlands, Tex.). There was little radiation damage to crystals, and new crystals were mounted when standard reference reflection intensities fell by 10%. All data were corrected for radiation damage when appropriate. The R-factors for the Friedel pairs and derivatives vs. native were as follows: RSR-4 (2.4 Å), 14.6% and 18.9%, and RSR-13 (2.8 Å), 7.2% and 12.5%, respectively. The difference electron density maps were obtained using the Cambridge computer programs (CCP4). […] The allosteric effector molecules were well resolved and easily fit to the difference density.
# [2] = test system: purified Hb Yakima; test: Effect on purified Hb Yakima; format: biochemical, human
# [3] = biological target: bovine hemoglobin (Bos taurus, UniProt P01966+P02070); test: Oxygen equilibrium of isolated bovine Hb solutions (p50); format: biochemical; conditions: for p50 shift at increasing chloride concentration / Hb bovine(p50): bovine Hb solution; for p50 shift at increasing chloride concentration: 0.5 mM, chloride 0-400 mM; for Hb bovine(p50): effector 0.5 mM, pH 7.2, 100 mM NaCl, 25 °C
# From the text: L3,5 and L3,4,5 were provided by Dr. Lalezari (Montefiore Hospital, New York); RSR-4 [2-[4-[[(3,5-dichloroanilino)carbonyl]methyl]phenoxy]-2-methylpropionic acid]and RSR13 [2-4-[[(3,5- dimethylanilino)carbonyl]methyl]phenoxy]-2-methylpropionic acid] have been synthesized following the procedure described in Randad et al. (J. Med. Chem. 34,752 (1991)). Human serum albumin (HSA), bovine serum albumin (BSA) and 4,4'diisothiocyanatostilbene-2,2'-disulfonate (DIDS) were purchased from Sigma (St. Louis, Mo.). Due to their low solubility in aqueous buffer, 10 mM stock solutions of the compounds were prepared in a slight exccess of sodium bicarbonate and back-titrated to pH 7.4. For example, RSR-4 or RSR-13 was dissolved at 60° C. in a 140 mM NaCl and 50 mM bis-Tris buffer at room temperature upon progressive addition of NaHCO3 to obtain 10 mM stock solutions. The pH was carefully adjusted to 7.4 after complete solubilization and before use of the solutions. Fresh solutions were prepared each week. Stock solutions of DIDS (1 mM) were prepared, in the dark, on the day of the experiments in a pH 7.4 buffer. Human serum albumin (defatted HSA) and bovine serum albumin (BSA) were prepared freshly as 1 mM stock solutions, pH 7.4. Equilibrium Measurements. The allosteric modulation of the effectors on freshly prepared solutions of hemoglobin or red cell suspensions was measured by the change in p50, the partial pressure of oxygen for half-saturation. Oxygen equilibrium curves (OEC) were carried out with the Hemox analyzer (TCS, Southampton, Pa.) under the following conditions: pH 7.4, 140 mM NaCl and 50 mM bis-Tris buffer at 37° C. In all experiments, the concentration of hemoglobin in the red cell suspensions was 20-25 μM hemoglobin tetramer (Hb4) as measured by Drabkin's method (cyanomethemoglobin) at the end of each recording. The final concentration of the allosteric effector in the cuvette was 0.5 mM, resulting in an effector/Hb4 ratio of 20 in the absence of albumin. OEC were also made in the same buffer containing 12.5, 25, 50, and 100 μM HSA (for human red cell suspensions) or BSA (for bovine cell suspensions). The serum albumin experiments were carried out with traces of an antifoaming agent. This agent has no deleterious effect on the red cell suspensions. The molar ratio of albumin to tetrameric hemoglobin was varied from 0.5 (at 12.5 μM HSA) to 4 (at 100 μM HSA); in whole blood this ratio is approximately 0.3 (0.7 mM albumin plus plasma proteins/2.25 mM Hb4). Therefore, the concentration of albumin used in the present studies was always larger relative to tetrameric hemoglobin than that found in whole blood.
# Bovine Red Cell Studies. Table 2 presents data for oxygen binding measurements for fresh bovine red blood cells and isolated Hb solutions on addition of the effectors L3,5, RSR-4, and RSR-13. The experimental conditions used were the same as described in conjunction with Table 1 for human red blood cells. The oxygen equilibrium curves for Hb solutions were made at pH 7.2, 100 mM NaCl and 50 mM bis-Tris buffer at 25° C. Catalase (20 μg/mL) and 50 μM EDTA were added to oppose oxidation of the hemes. The concentration of the effectors was 0.5 mM in all conditions. In Table 2, BSA is bovine serum albumin and P50 (mmHg) is the pO2 for 50% saturation.
# [4] = test system: bovine red cells; test: Hemolysis of bovine red cells in vitro; format: cell-based
# [5] = test system: HbA/Yakima red blood cells; test: Calculated oxygen delivery index of HbA/Yakima red blood cells (ΔY); format: cell-based, human; conditions: for ΔY (oxygen delivery index): HbA/Yakima RBC, 0.5 mM
# Description: Human blood was collected on heparin from healthy nonsmoking donors. Bovine blood was provided by Pr Delpech, INA (Paris-Grignon). Red blood cells were washed three times in isotonic buffer, kept at 4° C., and used within 24 h after sampling. Hemoglobin Yakima, a high-oxygen-affinity variant [α2 β2 99 (G1) Asp>>His], was obtained from a known heterozygous carrier. Fresh Yakima red cells were processed in the same way as described above.
# In Vivo Estimates for Percent of Oxygen Delivery. Table 4 presents the calculated oxygen delivery index for red blood cell suspensions in the presence or absence of 0.5 mM L3,5 or RSR-4. The experimental conditions for the experiments of Table 4 were the same as those used for Table 1. The oxygen delivery index was calculated from the experimental oxygen binding curves as the difference in hemoglobin oxygen saturation (percent) corresponding to the pO2 in the arterial blood (90 mmHg) and that in the mixed venous blood (40 mMHg). HbA/Yakima red blood cells were obtained from a heterozygous carrier of the high-affinity Hb variant.
# [6] = test system: human red cells; test: Hemolysis of human red cells in vitro; format: cell-based
# [7] = test system: rat erythrocytes; test: Hemolysis of rat erythrocytes
Compound,binding site in deoxyhemoglobin crystal [1],second symmetry-related pair of binding sites ([1]; near Arg 104β),state of purified Hb Yakima in the presence of effector [2],p50 shift at increasing chloride concentration [3],Hb bovine(p50) [3] [mmHg],hemolysis [4],ΔY (oxygen delivery index) ([5]; 50 μM HSA) [%],ΔY (oxygen delivery index) ([5]; no HSA) [%],oxygen delivery restoration ([5]; red cells containing 47% Hb Yakima),hemolysis [6],hemolysis [7],"potency in Hb solution ([3]; Hb solution studies, Table 2)"
Cc1cc(C)cc(NC(=O)Cc2ccc(OC(C)(C)C(=O)O)cc2)c1 [RSR-13],bind in the central water cavity in a conformation identical to that found for RSR-4,,,,,,,,,,,
"CC(C)(Oc1ccc(NC(=O)Nc2cc(Cl)cc(Cl)c2)cc1)C(=O)O [L3,5, reference compound]",,have a second symmetry-related pair of binding sites near Arg 104β,remains locked in the high-affinity R-state,identical at all chloride concentrations,37,,,,,,,
"CC(C)(Oc1ccc(CC(=O)Nc2cc(Cl)cc(Cl)c2)cc1)C(=O)O [RSR-4, 2-[4-[[(3,5-dichloroanilino)carbonyl]methyl]phenoxy]-2-methylpropionic acid]",,,remains locked in the high-affinity R-state,identical at all chloride concentrations,59,No hemolysis,19,22,able to restore an almost normal oxygen delivery; also recorded: almost normal oxygen delivery index,No hemolysis,Significant hemolysis,"significantly larger than that of L3,5"

# From patent US5661182A, “Method for lowering oxygen affinity of hemoglobin in redcell suspensions, in whole blood and in vivo” (Virginia Commonwealth University, priority 1995, dated 1997)
